Results on five compounds are retold here after patent publication US10800789B2, “Antiviral compounds” (Gilead Pharmasset LLC, priority 2012, dated 2020).

Like-named read-outs stand apart in the source and are kept apart here. Some results are limits rather than exact numbers.

Test [1] concerns stable HCV 1b RLuc replicon cells (dicistronic genotype 1b Con1 replicon). The test is described as follows: Renilla luciferase HCV replicon reporter assay, genotype 1b. Type of test: cell-based. The following applies: Hepatitis C virus, 72 h, stable 1b Con1 RLuc replicon cells, 72 hours; read-out: 1b. The essentials: (§1)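 Antiviral EC50 was determined in HCV replicon cells (stable RLuc lines for 1a H77, 1b Con1, 2a JFH-1 with NS5A L31; J6 NS5A chimera with M31) treated 72 h with compound. Renilla luciferase was then quantified.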

Test [2] deals with stable HCV 1a RLuc replicon cells (dicistronic genotype 1a H77 replicon). The test is described as follows: Renilla luciferase HCV replicon reporter assay, genotype 1a. Type of test: cell-based. The following applies: Hepatitis C virus, 72 h, stable 1a H77 RLuc replicon cells. The essentials:
as §1

Test [3] deals with Q30R in genotype 1a NS5A (1a Pi-Rluc replicon, Huh-7-derived cured-51 cells). The test is described as follows: Replicon assay against resistance mutant 1a Q30R. Format: cell-based, HCV. The following applies: Hepatitis C virus. On the procedure: Antiviral potency (EC50) was determined using a Renilla luciferase (RLuc)-based HCV replicon reporter assay. To perform the assay for genotype 1 and 2a JFH-1, stable HCV 1a RLuc replicon cells (harboring a dicistronic genotype 1a H77 replicon that encodes a RLuc reporter), stable HCV 1b RLuc replicon cells (harboring a dicistronic genotype 1b Con1 replicon that encodes a RLuc reporter), or stable HCV 2a JFH-1 Rluc replicon cells (harboring a dicistronic genotype 2a JFH-1 replicon that encodes a RLuc reporter; with L31 present in NS5A) were dispensed into 384-well plates for EC50 assays. To perform the assay for genotype 2a (with M31 present in NS5A) or 2b, NS5A chimeric genotype 2a JFH-1 replicons that encodes a RLuc-Neo reporter and either genotype 2a J6 strain NS5A gene or genotype 2b MD2b-1 strain NS5A gene (both with M31 present) respectively, were either transiently transfected (t) into Huh-Lunet cells or were established as stably replicating replicon cells (s) is provided. Either cells were dispensed into 384-well plates for EC50 assays. To perform the assay for genotype 3 and 4, NS5A chimeric genotype 1b Con1 replicons that encodes a Pi-RLuc reporter and either genotype 3a S52 strain NS5A gene or genotype 4a ED43 strain NS5A gene respectively, were transiently transfected (t) into Huh-Lunet cells, which were subsequently dispensed into 384-well plates. Compounds were dissolved in DMSO at a concentration of 10 mM and diluted in DMSO either manually or using an automated pipeting instrument. Serially 3-fold diluted compounds were either manually mixed with cell culture media and added to the seeded cells or directly added to the cells using an automated instrument. DMSO was used as a negative (solvent; no inhibition) control, and the protease inhibitor ITMN-191 was included at a concentration>100×EC50 as a positive control. 72 hours later, cells were lysed and Renilla luciferase activity quantified as recommended by the manufacturer (Promega-Madison, Wis.). Non-linear regression was performed to calculate EC50 values.
To determine the antiviral potency (EC50) against resistance mutants, resistance mutations, including M28T, Q30R, Q30H, Q30E, L31M, Y93C, Y93H, and Y93N in genotype 1a NS5A, Y93H and L31V/Y93H in genotype 1b NS5A, and Y93H for in genotype 3a NS5A, were introduced individually into either 1a Pi-Rluc or 1b Pi-Rluc replicons by site directed mutagenesis. Replicon RNA of each resistant mutant was transiently transfected into Huh-7-derived cured-51 cells and antiviral potency was determined on these transfected cells as described above.

Test [4] concerns stable HCV 2a JFH-1 Rluc replicon cells (L31 present in NS5A). The test is described as follows: Renilla luciferase HCV replicon reporter assay, genotype 2a JFH-1. Type of test: cell-based. The following applies: Hepatitis C virus. The essentials: as §1
Test [5] has as its system NS5A chimeric genotype 2a JFH-1 replicon with genotype 2a J6 strain NS5A gene (M31 present). The test is described as follows: Replicon assay, genotype 2a J6 NS5A chimera. Format: cell-based, HCV. The following applies: Hepatitis C virus. In outline: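 EC50 was fitted by non-linear regression to Renilla luciferase signal after 72 h of exposure to 3-fold serially diluted compound (10 mM DMSO stocks). Controls were DMSO (none) and ITMN-191 above 100×EC50 (full). Chimeric 2a replicons were used either stable or transiently transfected into Huh-Lunet cells.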

Test [6] concerns NS5A chimeric genotype 2a JFH-1 replicon with genotype 2b MD2b-1 strain NS5A gene (M31 present). The test is described as follows: Replicon assay, genotype 2b NS5A chimera. The following applies: Hepatitis C virus. Type of test: cell-based, HCV. In outline:
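Cells carrying the stable or transiently transfected (Huh-Lunet) dicistronic RLuc replicons received 3-fold serial compound dilutions from 10 mM DMSO stocks. After 72 h, cells were lysed and Renilla luciferase read. DMSO served as the no-inhibition control and ITMN-191 above 100×EC50 as the positive control; EC50 by non-linear regression.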

For test [7], the system named is NS5A chimeric genotype 1b Con1 replicon with genotype 3a S52 strain NS5A gene. The test is described as follows: Replicon assay, genotype 3a NS5A chimera. Format: cell-based, HCV. The following applies: Hepatitis C virus.
Test [8] has as its system NS5A chimeric genotype 1b Con1 replicon with genotype 4a ED43 strain NS5A gene. The test is described as follows: Replicon assay, genotype 4a NS5A chimera. The following applies: Hepatitis C virus. Format: cell-based, HCV.
[9] abbreviates: read-out: 2a JFH (nM), genotype 2a JFH-1 replicon (L31 in NS5A), stable cells.
[10] abbreviates: read-out: 2a JFH, stable 2a JFH-1 Rluc replicon cells, L31 in NS5A, activity range.
Setting [11] is: read-out: 2a J6 (t) (nM), genotype 2a J6 NS5A chimeric replicon (M31), transiently transfected (t) into Huh-Lunet cells.
The mark [12] stands for this setting: read-out: 2a J6 (t), transiently transfected (t) into Huh-Lunet cells, activity range.
Where [13] appears, read: 2BS, read-out: 2b (s), stably replicating replicon cells (s), activity range.
Setting [14] is: read-out: 2b (s) (nM), genotype 2b MD2b-1 NS5A chimeric replicon (M31), stably replicating replicon cells (s).
Setting [15] is: read-out: 3a (s) (nM), genotype 3a NS5A chimeric replicon, stable replicon cells (s).
[16] abbreviates: read-out: 3a (s), (s), activity range.
[17] abbreviates: read-out: 4a (s) (nM), genotype 4a NS5A chimeric replicon, stable replicon cells (s).
The mark [18] stands for this setting: read-out: 4a (s), (s), activity range.

Turning to `COC[C@H]1C[C@@H](c2ncc(-c3ccc4c(c3)COc3cc5c(ccc6nc([C@@H]7C[C@H](COC)CN7C(=O)[C@H](NC(=O)OC)c7ccccc7)[nH]c65)cc3-4)[nH]2)N(C(=O)[C@H](NC(=O)OC)c2ccccc2)C1` [EY, Methyl {(1R)-2-[(2S,4S)-2-(5-{2-[(2S,4S)-1-{(2R)-2-[(methoxycarbonyl)amino]-2-phenylacetyl}-4-(methoxymethyl)pyrrolidin-2-yl]-1,11-dihydroisochromeno[4′,3′:6,7]naphtho[1,2-d]imidazol-9-yl}-1H-imidazol-2-yl)-4-(methoxymethyl)pyrrolidin-1-yl]-2-oxo-1-phenylethyl}carbamate], the EC50 in test [1] was 0.049 nM; in test [2] it was 0.029 nM; in test [2] (activity range) it was below 0.1 nM; in test [3] (read-out: 1a Q30R) it was below 0.1 nM; in test [3] (read-out: 1a Q30R (nM)), 0.057 nM; in test [4] (setting [9]), 0.029 nM. For the same compound, the EC50 in test [4] (setting [10]) is below 0.1 nM; in test [5] (setting [11]), 0.008 nM; in test [5] (setting [12]) it was below 0.1 nM; in test [6] (setting [13]) it was below 0.1 nM; in test [6] (setting [14]), 0.035 nM; in test [7] (setting [15]) it was 0.087 nM. The EC50 in test [7] (setting [16]) was below 0.1 nM; in test [7] (read-out: 3a (t) (nM), genotype 3a NS5A chimeric replicon, transiently transfected (t)), 0.118 nM; in test [7] (read-out: 3a (t), transiently transfected (t) into Huh-Lunet cells, activity range), 0.1 to 0.999 nM; in test [8] (setting [17]), 0.025 nM; in test [8] (setting [18]), below 0.1 nM.

As for `COC(=O)N[C@H](C(=O)N1[C@@H](C)CC[C@H]1c1ncc(-c2ccc3c(c2)COc2cc4c(ccc5nc([C@@H]6CC[C@H](C)N6C(=O)[C@H](NC(=O)OC)c6ccccc6)[nH]c54)cc2-3)[nH]1)C(C)C` [FB, Methyl {(1R)-2-[(2S,5S)-2-(9-{2-[(2S,5S)-1-{(2S)-2-[(methoxycarbonyl)amino]-3-methylbutanoyl}-5-methylpyrrolidin-2-yl]-1H-imidazol-5-yl}-1,11-dihydroisochromeno[4′,3′:6,7]naphtho[1,2-d]imidazol-2-yl)-5-methylpyrrolidin-1-yl]-2-oxo-1-phenylethyl}carbamate], the EC50 in test [1] is 0.014 nM; in test [2], 0.009 nM; in test [2] (activity range), below 0.1 nM; in test [3] (read-out: 1a Q30R), below 0.1 nM; in test [3] (read-out: 1a Q30R (nM)), 0.077 nM; in test [4] (setting [9]), 0.013 nM. Also, the EC50 was below 0.1 nM in test [4] (setting [10]); 0.105 nM in test [5] (setting [11]); 0.1 to 0.999 nM in test [5] (setting [12]); below 0.1 nM in test [6] (setting [13]); 0.081 nM in test [6] (setting [14]); 0.026 nM in test [7] (setting [15]). Besides, the EC50 in test [7] (setting [16]) was below 0.1 nM; in test [8] (setting [17]), 0.01 nM; in test [8] (setting [18]), below 0.1 nM.

For `COC[C@H](NC(=O)OC)C(=O)N1[C@@H](C)CC[C@H]1c1nc2ccc3cc4c(cc3c2[nH]1)OCc1cc(-c2cnc([C@@H]3CC[C@H](C)N3C(=O)[C@@H](NC(=O)OC)C(C)C)[nH]2)ccc1-4` [FE, Methyl [(2S)-1-{(2S,5S)-2-[5-(2-{(2S,5S)-1-[N-(methoxycarbonyl)-O-methyl-L-seryl]-5-methylpyrrolidin-2-yl}-1,11-dihydroisochromeno[4′,3′:6,7]naphtho[1,2-d]imidazol-9-yl)-1H-imidazol-2-yl]-5-methylpyrrolidin-1-yl}-3-methyl-1-oxobutan-2-yl]carbamate], the EC50 in test [1] is 0.015 nM; in test [2], 0.012 nM; in test [2] (activity range), below 0.1 nM; in test [3] (read-out: 1a Q30R), 0.1 to 0.999 nM; in test [3] (read-out: 1a Q30R (nM)), 0.253 nM; in test [4] (setting [9]), 0.016 nM. Besides, the EC50 in test [4] (setting [10]) was below 0.1 nM; in test [5] (setting [11]), 0.122 nM; in test [5] (setting [12]), 0.1 to 0.999 nM; in test [6] (setting [13]), 0.1 to 0.999 nM; in test [6] (setting [14]) it was 0.463 nM; in test [7] (setting [15]), 0.072 nM. Besides, the EC50 is below 0.1 nM in test [7] (setting [16]), 0.012 nM in test [8] (setting [17]) and below 0.1 nM in test [8] (setting [18]).

As to `COC(=O)N[C@H](C(=O)N1[C@@H](C)CC[C@H]1c1ncc(-c2ccc3c(c2)COc2cc4c(ccc5nc([C@@H]6CC[C@H](C)N6C(=O)[C@@H](NC(=O)OC)[C@@H](C)OC(C)(C)C)[nH]c54)cc2-3)[nH]1)C(C)C` [FG, Methyl {(2S,3R)-3-tert-butoxy-1-[(2S,5S)-2-(9-{2-[(2S,5S)-1-{(2S)-2-[(methoxycarbonyl)amino]-3-methylbutanoyl}-5-methylpyrrolidin-2-yl]-1H-imidazol-5-yl}-1,11-dihydroisochromeno[4′,3′:6,7]naphtho[1,2-d]imidazol-2-yl)-5-methylpyrrolidin-1-yl]-1-oxobutan-2-yl}carbamate], the EC50 is 0.04 nM in test [1]; 0.024 nM in test [2]; below 0.1 nM in test [2] (activity range); 0.1 to 0.999 nM in test [3] (read-out: 1a Q30R); 0.577 nM in test [3] (read-out: 1a Q30R (nM)); 0.047 nM in test [4] (setting [9]). In addition, the EC50 is below 0.1 nM in test [4] (setting [10]); 1.45 nM in test [5] (setting [11]); 1 to 44 nM in test [5] (setting [12]); 1 to 44 nM in test [6] (setting [13]); 1.53 nM in test [6] (setting [14]); 0.298 nM in test [7] (setting [15]). Also, the results for the EC50 in test [7] (setting [16]), in test [8] (setting [17]) and in test [8] (setting [18]) were 0.1 to 0.999 nM, 0.044 nM and below 0.1 nM, respectively.

Turning to `CC[C@H](C)[C@H](NC(=O)OC)C(=O)N1[C@@H](C)CC[C@H]1c1ncc(-c2ccc3c(c2)COc2cc4c(ccc5nc([C@@H]6CC[C@H](C)N6C(=O)[C@@H](NC(=O)OC)C6CCOCC6)[nH]c54)cc2-3)[nH]1` [GG, Methyl [(2S,3S)-1-{(2S,5S)-2-[5-(2-{(2S,5S)-1-[(2S)-2-[(methoxycarbonyl)amino]-2-(tetrahydro-2H-pyran-4-yl)acetyl]-5-methylpyrrolidin-2-yl}-1,11-dihydroisochromeno[4′,3′:6,7]naphtho[1,2-d]imidazol-9-yl)-1H-imidazol-2-yl]-5-methylpyrrolidin-1-yl}-3-methyl-1-oxopentan-2-yl]carbamate], the EC50 is 0.022 nM in test [1]; 0.015 nM in test [2]; below 0.1 nM in test [2] (activity range); below 0.1 nM in test [3] (read-out: 1a Q30R); 0.032 nM in test [3] (read-out: 1a Q30R (nM)); 0.02 nM in test [4] (setting [9]). Besides, the EC50 in test [4] (setting [10]) is below 0.1 nM; in test [6] (setting [13]) it was below 0.1 nM; in test [6] (setting [14]) it was 0.083 nM; in test [6] (read-out: 2b (t) (nM), genotype 2b MD2b-1 NS5A chimeric replicon (M31), transiently transfected (t)), 0.044 nM; in test [6] (read-out: 2b (t), transiently transfected (t) into Huh-Lunet cells, activity range) it was below 0.1 nM; in test [7] (setting [15]), 0.038 nM. For the same compound, the results for the EC50 in test [7] (setting [16]), in test [8] (setting [17]) and in test [8] (setting [18]) were below 0.1 nM, 0.013 nM and below 0.1 nM, respectively.
